From patent US20240188566A1, “Biocidal Composition and Method” (ARXADA, LLC, priority 2021, published 2024)
Marks after values point to notes of the source that are not given here.

Experiments:
Format in all cases: cell-based
microbial growth = test: In-can challenge test of dicyandiamide as adjuvant for MIT (Table 3); conditions: for degree of microbial growth (plate ranking) / passing result of challenge test: Dicy 0
From the text: However, using a combination of MIT and dicyandiamide can allow for effective microbial control at MIT concentrations as low as 20 ppm.
(§1) Example data provided in Tables 1, 2 and 3 should be understood as indicating the degree of microbial growth observed for a given data point unless otherwise indicated. In particular, each plate is ranked from 0 through 5c (i.e., one of 0, 1, 2, 3, 4, 5, or 5c) according to the degree of observed microbial growth, where: a “0” ranking indicates no growth; a “1” ranking indicates one (1) through five (5) observed colony forming unit (cfu), i.e., the plate was very lightly contaminated; a “2” ranking indicates six (6) through fifteen (15) cfu, i.e., the plate was lightly contaminated; a “3” ranking indicates sixteen (16) through thirty (30) cfu, i.e., the plate was moderately contaminated; a “4” ranking indicates thirty-one (31) through forty-five (45) cfu, i.e., the plate was heavily contaminated; a “5” ranking indicates greater than (45) cfu, i.e., the plate was severely contaminated; and a “5c” ranking indicates confluent growth, i.e., the plate was very severely contaminated. Thus, for instance, Table 1, Challenge 1 at 24 h for BIT 50 ppm has a value of 5 indicating greater than forty-five (45) cfu were observed. As another example for illustration, Table 1, Challenge 1 at 24 h for dicyandiamide 5,000 ppm+BIT 50 ppm has a value of 1 indicating one (1) through five (5) cfu was observed.

[1] = tested on: Pseudomonas aeruginosa, Escherichia coli, Enterobacter cloacae, Acinetobacter calcoaceticus; test: In-can challenge test, modified ASTM D2574-97 (Table 1)
Description: (§2) Various formulations were made in accordance with the present disclosure and tested for performance. In one challenge test, the efficacy of dicyandiamide as an adjuvant for BIT was evaluated using modified ASTM D2574-97 “Standard Test Method for Resistance of Emulsion Paints in the Container to Attack by Microorganisms” with higher inoculation volumes and frequency. A standard consortium of four (4) bacterial populations: Pseudomonas aeruginosa, Escherichia coli, Enterobacter cloacae, Acinetobacter calcoaceticus was used to inoculate three (3) different samples at ten percent (10%), five percent (5%), or two and a half percent (2.5%) of the sample size. At twenty-four (24) hours and seventy-two (72) hours after each inoculation, a portion of each sample was streaked on tryptic soy agar. A dilution plate count was performed at the last seventy-two (72) hour time point.
as §1

[2] = tested on: Pseudomonas aeruginosa, Escherichia coli, Enterobacter cloacae, Acinetobacter calcoaceticus; test: Repeat in-can challenge test, same conditions (Table 2); conditions: Dicyandiamide 5,000 ppm
Description: as §2, §1

## Cn1sccc1=O [MIT − 50, 2-methyl-4-isothiazolin-3-one]
Microbial growth; MIT 15 ppm as active (MIT-50 30 ppm), 1st challenge, 24
  degree of microbial growth (plate ranking): 5 (a “5” ranking indicates greater than (45) cfu, i.e., the plate was severely contaminated)
Microbial growth; MIT 15 ppm as active (MIT-50 30 ppm), 1st challenge, 72
  degree of microbial growth (plate ranking): 5 (a “5” ranking indicates greater than (45) cfu, i.e., the plate was severely contaminated)
Microbial growth; MIT 15 ppm as active (MIT-50 30 ppm), 2nd challenge, 72
  degree of microbial growth (plate ranking): 5 (a “5” ranking indicates greater than (45) cfu, i.e., the plate was severely contaminated)
Microbial growth; MIT 15 ppm as active (MIT-50 30 ppm), 3rd challenge, 24
  degree of microbial growth (plate ranking): 5 (a “5” ranking indicates greater than (45) cfu, i.e., the plate was severely contaminated)
Microbial growth; MIT 15 ppm as active (MIT-50 30 ppm), 3rd challenge, 72
  degree of microbial growth (plate ranking): 5 (a “5” ranking indicates greater than (45) cfu, i.e., the plate was severely contaminated)
Microbial growth; MIT 20 ppm as active (MIT-50 40 ppm), 1st challenge, 24
  degree of microbial growth (plate ranking): 5 (a “5” ranking indicates greater than (45) cfu, i.e., the plate was severely contaminated)
Microbial growth; MIT 20 ppm as active (MIT-50 40 ppm), 1st challenge, 72
  degree of microbial growth (plate ranking): 5 (a “5” ranking indicates greater than (45) cfu, i.e., the plate was severely contaminated)
Microbial growth; MIT 20 ppm as active (MIT-50 40 ppm), 2nd challenge, 72
  degree of microbial growth (plate ranking): 5 (a “5” ranking indicates greater than (45) cfu, i.e., the plate was severely contaminated)
Microbial growth; MIT 20 ppm as active (MIT-50 40 ppm), 3rd challenge, 24
  degree of microbial growth (plate ranking): 5 (a “5” ranking indicates greater than (45) cfu, i.e., the plate was severely contaminated)
Microbial growth; MIT 20 ppm as active (MIT-50 40 ppm), 3rd challenge, 72
  degree of microbial growth (plate ranking): 5 (a “5” ranking indicates greater than (45) cfu, i.e., the plate was severely contaminated)
Microbial growth; MIT 25 ppm as active (MIT-50 50 ppm), 1st challenge, 24
  degree of microbial growth (plate ranking): 5 (a “5” ranking indicates greater than (45) cfu, i.e., the plate was severely contaminated)
Microbial growth; MIT 25 ppm as active (MIT-50 50 ppm), 1st challenge, 72
  degree of microbial growth (plate ranking): 2 (a “2” ranking indicates six (6) through fifteen (15) cfu, i.e., the plate was lightly contaminated)
Microbial growth; MIT 25 ppm as active (MIT-50 50 ppm), 2nd challenge, 72
  degree of microbial growth (plate ranking): 5 (a “5” ranking indicates greater than (45) cfu, i.e., the plate was severely contaminated)
Microbial growth; MIT 25 ppm as active (MIT-50 50 ppm), 3rd challenge, 24
  degree of microbial growth (plate ranking): 5 (a “5” ranking indicates greater than (45) cfu, i.e., the plate was severely contaminated)
Microbial growth; MIT 25 ppm as active (MIT-50 50 ppm), 3rd challenge, 72
  degree of microbial growth (plate ranking): 5 (a “5” ranking indicates greater than (45) cfu, i.e., the plate was severely contaminated)
Microbial growth; MIT 30 ppm as active (MIT-50 60 ppm)
  passing result of challenge test: MIT − 50 60 ppm (30)*
Microbial growth; MIT 30 ppm as active (MIT-50 60 ppm), 1st challenge, 24
  degree of microbial growth (plate ranking): 5 (a “5” ranking indicates greater than (45) cfu, i.e., the plate was severely contaminated)
Microbial growth; MIT 30 ppm as active (MIT-50 60 ppm), 1st challenge, 72
  degree of microbial growth (plate ranking): 0
Microbial growth; MIT 30 ppm as active (MIT-50 60 ppm), 2nd challenge, 72
  degree of microbial growth (plate ranking): 5 (a “5” ranking indicates greater than (45) cfu, i.e., the plate was severely contaminated)
Microbial growth; MIT 30 ppm as active (MIT-50 60 ppm), 3rd challenge, 24
  degree of microbial growth (plate ranking): 5 (a “5” ranking indicates greater than (45) cfu, i.e., the plate was severely contaminated)
Microbial growth; MIT 30 ppm as active (MIT-50 60 ppm), 3rd challenge, 72
  degree of microbial growth (plate ranking): 0
Microbial growth; MIT 35 ppm as active (MIT-50 70 ppm)
  passing result of challenge test: MIT − 50 70 ppm (35)*
Microbial growth; MIT 35 ppm as active (MIT-50 70 ppm), 1st challenge, 24
  degree of microbial growth (plate ranking): 5 (a “5” ranking indicates greater than (45) cfu, i.e., the plate was severely contaminated)
Microbial growth; MIT 35 ppm as active (MIT-50 70 ppm), 1st challenge, 72
  degree of microbial growth (plate ranking): 0
Microbial growth; MIT 35 ppm as active (MIT-50 70 ppm), 2nd challenge, 72
  degree of microbial growth (plate ranking): 0
Microbial growth; MIT 35 ppm as active (MIT-50 70 ppm), 3rd challenge, 24
  degree of microbial growth (plate ranking): 5 (a “5” ranking indicates greater than (45) cfu, i.e., the plate was severely contaminated)
Microbial growth; MIT 35 ppm as active (MIT-50 70 ppm), 3rd challenge, 72
  degree of microbial growth (plate ranking): 0
Microbial growth; MIT alone, no guanidine enhancer
  MIT concentration giving passing results: ≥ 30 ppm

## N#CN=C(N)N [Dicyandiamide, 2-cyanoguanidine]
[1]; Dicyandiamide 5,000 ppm, Challenge 1 (10%), 24 h
  degree of microbial growth (plate ranking): 5c
[1]; Dicyandiamide 5,000 ppm, Challenge 1 (10%), 72 h
  degree of microbial growth (plate ranking): 5c
[1]; Dicyandiamide 5,000 ppm, Challenge 2 (5%), 72 h
  degree of microbial growth (plate ranking): 5c
[1]; Dicyandiamide 5,000 ppm, Challenge 3 (2.5%), 24 h
  degree of microbial growth (plate ranking): 5c
[1]; Dicyandiamide 5,000 ppm, Challenge 3 (2.5%), 72 h
  dilution plate count: 8.0 × 10^6
[1]; Dicyandiamide 10,000 ppm, Challenge 1 (10%), 24 h
  degree of microbial growth (plate ranking): 5c
[1]; Dicyandiamide 10,000 ppm, Challenge 1 (10%), 72 h
  degree of microbial growth (plate ranking): 1 (a “1” ranking indicates one (1) through five (5) observed colony forming unit (cfu), i.e., the plate was very lightly contaminated)
[1]; Dicyandiamide 10,000 ppm, Challenge 2 (5%), 72 h
  degree of microbial growth (plate ranking): 5 (a “5” ranking indicates greater than (45) cfu, i.e., the plate was severely contaminated)
[1]; Dicyandiamide 10,000 ppm, Challenge 3 (2.5%), 24 h
  degree of microbial growth (plate ranking): 5 (a “5” ranking indicates greater than (45) cfu, i.e., the plate was severely contaminated)
[1]; Dicyandiamide 10,000 ppm, Challenge 3 (2.5%), 72 h
  dilution plate count: 4.2 × 10^6
[1]; Table 1, not in combination with BIT
  efficacy of dicyandiamide alone compared to the blank: no significant difference compared to the blank
[2]; Challenge 1 (10%), 24 h
  degree of microbial growth (plate ranking): 5c
[2]; Challenge 1 (10%), 72 h
  degree of microbial growth (plate ranking): 5c
[2]; Challenge 2 (5%), 72 h
  degree of microbial growth (plate ranking): 5c
[2]; Challenge 3 (2.5%), 24 h
  degree of microbial growth (plate ranking): 5c
[2]; Challenge 3 (2.5%), 72 h
  dilution plate count: 2.4 × 10^7
